Five compounds from ChEMBL document CHEMBL5257085, “Siderophores: Chemical tools for precise antibiotic delivery” (Bioorg Med Chem Lett, 2023) can be followed below.

Test [1] concerns Acinetobacter baumannii. The test can be described thus: Potentiation of imipenem-induced antibacterial activity against OXA-58 producing Acinetobacter baumannii ATCC 17978 assessed as fold change in imipenem MIC. Type of test: functional.
The test system of test [2] is Acinetobacter baumannii. As to the kind of experiment: Potentiation of imipenem-induced antibacterial activity against OXA-23 producing Acinetobacter baumannii ATCC 17978 assessed as fold change in imipenem MIC. It counts as functional.
In test [3] the test system is Acinetobacter baumannii. The test can be described thus: Potentiation of imipenem-induced antibacterial activity against OXA-24 producing Acinetobacter baumannii ATCC 17978 assessed as fold change in imipenem MIC. Type of test: functional.
In test [4] the test system is Acinetobacter baumannii. The test can be described thus: Potentiation of imipenem-induced antibacterial activity against OXA-143 producing Acinetobacter baumannii ATCC 17978 assessed as fold change in imipenem MIC. It counts as functional.
The subject of test [5] is Acinetobacter baumannii. The test can be described thus: Potentiation of imipenem-induced antibacterial activity against OXA-235 producing Acinetobacter baumannii ATCC 17978 assessed as fold change in imipenem MIC. It counts as functional.
Test [6] deals with Pseudomonas aeruginosa. The test can be described thus: Antibacterial activity against Pseudomonas aeruginosa assessed as inhibition of bacterial growth incubated for 18 to 48 hrs by two-fold serial dilution method. Type of test: functional. The conditions noted are these: time 18-48 hrs.
Test [7] deals with Escherichia coli. The test can be described thus: Antibacterial activity against Escherichia coli JW5503 harbouring tolC-knock out mutant assessed as inhibition of bacterial growth incubated for 24 hrs by CLSI protocol based broth microdilution method. It counts as functional. Background: Dilution methods test growth across graded concentrations, often in twofold steps.
The target of the next test is DNA gyrase (Escherichia coli, UniProt P0AES4+P0AES6). As to the kind of experiment: Inhibition of Escherichia coli DNA gyrase ATPase activity using pBR322 as substrate incubated for 10 mins in presence of NADH and ATP by supercoiling assay. It counts as protein-complex assay.
Test [8] relates to Klebsiella pneumoniae. As to the kind of experiment: Antibacterial activity against NDM-1 producing Klebsiella pneumoniae assessed as inhibition of bacterial growth by CLSI protocol based broth microdilution method. It counts as functional.
Test [9] has as its system Klebsiella pneumoniae. As to the kind of experiment: Antibacterial activity against KPC-2 producing Klebsiella pneumoniae assessed as inhibition of bacterial growth by CLSI protocol based broth microdilution method. Type of test: functional.
The subject of test [10] is Escherichia coli. The test can be described thus: Antibacterial activity against NDM-1 producing Escherichia coli assessed as inhibition of bacterial growth by CLSI protocol based broth microdilution method. It counts as functional.
Test [11] has as its system Pseudomonas aeruginosa. As to the kind of experiment: Antibacterial activity against IMP-1 producing Pseudomonas aeruginosa assessed as inhibition of bacterial growth by CLSI protocol based broth microdilution method. It counts as functional.
Test [12] deals with Stenotrophomonas maltophilia. As to the kind of experiment: Antibacterial activity against L1 producing Stenotrophomonas maltophilia assessed as inhibition of bacterial growth by CLSI protocol based broth microdilution method. It counts as functional.
For test [13], the system named is Pseudomonas aeruginosa. The test can be described thus: Antibacterial activity against VIM-2 producing Pseudomonas aeruginosa assessed as inhibition of bacterial growth by CLSI protocol based broth microdilution method. It counts as functional.
Test [14] relates to Klebsiella pneumoniae. The test can be described thus: Antibacterial activity against KPC-3 producing Klebsiella pneumoniae assessed as inhibition of bacterial growth by CLSI protocol based broth microdilution method. Type of test: functional.
The test system of test [15] is Acinetobacter baumannii. As to the kind of experiment: Antibacterial activity against OXA-23 producing Acinetobacter baumannii assessed as inhibition of bacterial growth by CLSI protocol based broth microdilution method. It counts as functional.

Converted amounts (≈) assume the structure as drawn.

Consider `C[C@]1(COC(=O)Cc2ccc(O)c(O)c2)[C@H](C(=O)O)N2C(=O)/C(=C/c3ccccn3)[C@H]2S1(=O)=O`, for which the “fold change (FC)” value in the test on Acinetobacter baumannii [1], with Acinetobacter baumannii [2], with Acinetobacter baumannii [3], in the test with Acinetobacter baumannii [4] and in the test with Acinetobacter baumannii [5] was 32 throughout.

As usually defined, the MIC is the least concentration at which growth counts as inhibited. `CC(=O)NC[C@H]1CN(c2ccc(N3CCN(C(=O)Cn4cc(COC(=O)NCCCCNC(=O)c5cccc(O)c5O)nn4)CC3)c(F)c2)C(=O)O1`: in the test on Pseudomonas aeruginosa [6], the MIC worked out at 128 µM (≈ 92.9 µg/mL).

For orientation: IC50 means the concentration needed to halve the response being measured. For the compound `Cc1[nH]c(C(=O)N[C@H]2CCc3nc(NC(=O)CNC(=O)c4ccc(O)c(O)c4)sc3C2)c(Cl)c1Cl`, the MIC in the test with Escherichia coli [7] came to 14 µg/mL (≈ 26 µM). Also, the IC50 on DNA gyrase came to 58 nM.

In general, MIC50 refers to an inhibitory concentration at the 50% level, which refers to growth in some studies and to a panel of isolates in others. `CC(C)(O/N=C(\C(=O)N[C@@H]1C(=O)N2C(C(=O)[O-])=C(C[N+]3(CCNC(=O)c4ccc(O)c(O)c4Cl)CCCC3)CS[C@H]12)c1csc(N)n1)C(=O)O` [CEFIDEROCOL]: the MIC50 (in the test with Klebsiella pneumoniae [8]; in the test with Klebsiella pneumoniae [9]; with Escherichia coli [10]; with Pseudomonas aeruginosa [11]; in test [12]; in the test on Pseudomonas aeruginosa [13]) was 0.12 µg/mL (≈ 0.16 µM) in each case. Further, the MIC50 in the test on Klebsiella pneumoniae [14] and in the test on Acinetobacter baumannii [15] was 0.12 µg/mL (≈ 0.16 µM) in each case.

As to `CC(=O)NC[C@H]1CN(c2ccc(N3CCOCC3)c(F)c2)C(=O)O1` [LINEZOLID], the minimal inhibitory concentration (MIC) with Pseudomonas aeruginosa [6] is more than 1020 µM.
